ChEMBL document CHEMBL3217532, “New analyses of MIC90 data to aid antibacterial drug discovery” (2011)
In brackets after ≈: the same amount, converted by molar mass.

system: Pseudomonas aeruginosa; test: Antimicrobial activity against Pseudomonas aeruginosa 1611-09; type: functional

| MIC90 | Compound |
| --- | --- |
| 0.125 µg/mL (≈ 0.187 µM) | C[C@H]1[C@H](NC(=O)/C(=N\OC(C)(C)C(=O)O)c2csc(N)n2)C(=O)N1C(=O)NS(=O)(=O)n1nc(-c2cc(=O)c(O)c[nH]2)n(C)c1=O |

system: Pseudomonas aeruginosa; test: Antimicrobial activity against Pseudomonas aeruginosa 1567-05; type: functional

| MIC90 | Compound |
| --- | --- |
| 0.25 µg/mL (≈ 0.374 µM) | C[C@H]1[C@H](NC(=O)/C(=N\OC(C)(C)C(=O)O)c2csc(N)n2)C(=O)N1C(=O)NS(=O)(=O)n1nc(-c2cc(=O)c(O)c[nH]2)n(C)c1=O |

system: Pseudomonas aeruginosa; test: Antimicrobial activity against Pseudomonas aeruginosa 1564-05; type: functional

| MIC90 | Compound |
| --- | --- |
| 0.125 µg/mL (≈ 0.187 µM) | C[C@H]1[C@H](NC(=O)/C(=N\OC(C)(C)C(=O)O)c2csc(N)n2)C(=O)N1C(=O)NS(=O)(=O)n1nc(-c2cc(=O)c(O)c[nH]2)n(C)c1=O |

system: Pseudomonas aeruginosa; test: Antimicrobial activity against Pseudomonas aeruginosa 1765-00; type: functional

| MIC90 | Compound |
| --- | --- |
| 1 µg/mL (≈ 1.5 µM) | C[C@H]1[C@H](NC(=O)/C(=N\OC(C)(C)C(=O)O)c2csc(N)n2)C(=O)N1C(=O)NS(=O)(=O)n1nc(-c2cc(=O)c(O)c[nH]2)n(C)c1=O |

system: Pseudomonas aeruginosa; test: Antimicrobial activity against Pseudomonas aeruginosa PA-4993; type: functional

| MIC90 | Compound |
| --- | --- |
| 0.125 µg/mL (≈ 0.187 µM) | C[C@H]1[C@H](NC(=O)/C(=N\OC(C)(C)C(=O)O)c2csc(N)n2)C(=O)N1C(=O)NS(=O)(=O)n1nc(-c2cc(=O)c(O)c[nH]2)n(C)c1=O |

system: Pseudomonas aeruginosa; test: Antimicrobial activity against Pseudomonas aeruginosa 1952-00; type: functional

| MIC90 | Compound |
| --- | --- |
| 0.25 µg/mL (≈ 0.374 µM) | C[C@H]1[C@H](NC(=O)/C(=N\OC(C)(C)C(=O)O)c2csc(N)n2)C(=O)N1C(=O)NS(=O)(=O)n1nc(-c2cc(=O)c(O)c[nH]2)n(C)c1=O |

system: Pseudomonas aeruginosa; test: Antimicrobial activity against Pseudomonas aeruginosa PA-4991; type: functional

| MIC90 | Compound |
| --- | --- |
| 0.5 µg/mL (≈ 0.748 µM) | C[C@H]1[C@H](NC(=O)/C(=N\OC(C)(C)C(=O)O)c2csc(N)n2)C(=O)N1C(=O)NS(=O)(=O)n1nc(-c2cc(=O)c(O)c[nH]2)n(C)c1=O |

system: Pseudomonas aeruginosa; test: Antimicrobial activity against Pseudomonas aeruginosa 1513-08; type: functional

| MIC90 | Compound |
| --- | --- |
| 1 µg/mL (≈ 1.5 µM) | C[C@H]1[C@H](NC(=O)/C(=N\OC(C)(C)C(=O)O)c2csc(N)n2)C(=O)N1C(=O)NS(=O)(=O)n1nc(-c2cc(=O)c(O)c[nH]2)n(C)c1=O |

system: Pseudomonas aeruginosa; test: Antimicrobial activity against Pseudomonas aeruginosa 1767-00; type: functional

| MIC90 | Compound |
| --- | --- |
| 0.25 µg/mL (≈ 0.374 µM) | C[C@H]1[C@H](NC(=O)/C(=N\OC(C)(C)C(=O)O)c2csc(N)n2)C(=O)N1C(=O)NS(=O)(=O)n1nc(-c2cc(=O)c(O)c[nH]2)n(C)c1=O |

system: Pseudomonas aeruginosa; test: Antimicrobial activity against Pseudomonas aeruginosa PA-4997; type: functional

| MIC90 | Compound |
| --- | --- |
| 0.5 µg/mL (≈ 0.748 µM) | C[C@H]1[C@H](NC(=O)/C(=N\OC(C)(C)C(=O)O)c2csc(N)n2)C(=O)N1C(=O)NS(=O)(=O)n1nc(-c2cc(=O)c(O)c[nH]2)n(C)c1=O |

system: Pseudomonas aeruginosa; test: Antimicrobial activity against Pseudomonas aeruginosa 1752-00; type: functional

| MIC90 | Compound |
| --- | --- |
| 0.5 µg/mL (≈ 0.748 µM) | C[C@H]1[C@H](NC(=O)/C(=N\OC(C)(C)C(=O)O)c2csc(N)n2)C(=O)N1C(=O)NS(=O)(=O)n1nc(-c2cc(=O)c(O)c[nH]2)n(C)c1=O |

system: Pseudomonas aeruginosa; test: Antimicrobial activity against Pseudomonas aeruginosa PA-4999; type: functional

| MIC90 | Compound |
| --- | --- |
| 0.5 µg/mL (≈ 0.748 µM) | C[C@H]1[C@H](NC(=O)/C(=N\OC(C)(C)C(=O)O)c2csc(N)n2)C(=O)N1C(=O)NS(=O)(=O)n1nc(-c2cc(=O)c(O)c[nH]2)n(C)c1=O |

system: Pseudomonas aeruginosa; test: Antimicrobial activity against Pseudomonas aeruginosa PA-75; type: functional

| MIC90 | Compound |
| --- | --- |
| 0.5 µg/mL (≈ 0.748 µM) | C[C@H]1[C@H](NC(=O)/C(=N\OC(C)(C)C(=O)O)c2csc(N)n2)C(=O)N1C(=O)NS(=O)(=O)n1nc(-c2cc(=O)c(O)c[nH]2)n(C)c1=O |

system: Pseudomonas aeruginosa; test: Antimicrobial activity against Pseudomonas aeruginosa 1515-08; type: functional

| MIC90 | Compound |
| --- | --- |
| 0.5 µg/mL (≈ 0.748 µM) | C[C@H]1[C@H](NC(=O)/C(=N\OC(C)(C)C(=O)O)c2csc(N)n2)C(=O)N1C(=O)NS(=O)(=O)n1nc(-c2cc(=O)c(O)c[nH]2)n(C)c1=O |

system: Pseudomonas aeruginosa; test: Antimicrobial activity against Pseudomonas aeruginosa PA-4624; type: functional

| MIC90 | Compound |
| --- | --- |
| 1 µg/mL (≈ 1.5 µM) | C[C@H]1[C@H](NC(=O)/C(=N\OC(C)(C)C(=O)O)c2csc(N)n2)C(=O)N1C(=O)NS(=O)(=O)n1nc(-c2cc(=O)c(O)c[nH]2)n(C)c1=O |

system: Pseudomonas aeruginosa; test: Antimicrobial activity against Pseudomonas aeruginosa 1569-05; type: functional

| MIC90 | Compound |
| --- | --- |
| 0.5 µg/mL (≈ 0.748 µM) | C[C@H]1[C@H](NC(=O)/C(=N\OC(C)(C)C(=O)O)c2csc(N)n2)C(=O)N1C(=O)NS(=O)(=O)n1nc(-c2cc(=O)c(O)c[nH]2)n(C)c1=O |

system: Pseudomonas aeruginosa; test: Antimicrobial activity against Pseudomonas aeruginosa 1953-00; type: functional

| MIC90 | Compound |
| --- | --- |
| 0.25 µg/mL (≈ 0.374 µM) | C[C@H]1[C@H](NC(=O)/C(=N\OC(C)(C)C(=O)O)c2csc(N)n2)C(=O)N1C(=O)NS(=O)(=O)n1nc(-c2cc(=O)c(O)c[nH]2)n(C)c1=O |

system: Pseudomonas aeruginosa; test: Antimicrobial activity against Pseudomonas aeruginosa 1509-08; type: functional

| MIC90 | Compound |
| --- | --- |
| 4 µg/mL (≈ 5.98 µM) | C[C@H]1[C@H](NC(=O)/C(=N\OC(C)(C)C(=O)O)c2csc(N)n2)C(=O)N1C(=O)NS(=O)(=O)n1nc(-c2cc(=O)c(O)c[nH]2)n(C)c1=O |

system: Pseudomonas aeruginosa; test: Antimicrobial activity against Pseudomonas aeruginosa 1614-09; type: functional

| MIC90 | Compound |
| --- | --- |
| 0.25 µg/mL (≈ 0.374 µM) | C[C@H]1[C@H](NC(=O)/C(=N\OC(C)(C)C(=O)O)c2csc(N)n2)C(=O)N1C(=O)NS(=O)(=O)n1nc(-c2cc(=O)c(O)c[nH]2)n(C)c1=O |

system: Pseudomonas aeruginosa; test: Antimicrobial activity against Pseudomonas aeruginosa 1955-00; type: functional

| MIC90 | Compound |
| --- | --- |
| 0.25 µg/mL (≈ 0.374 µM) | C[C@H]1[C@H](NC(=O)/C(=N\OC(C)(C)C(=O)O)c2csc(N)n2)C(=O)N1C(=O)NS(=O)(=O)n1nc(-c2cc(=O)c(O)c[nH]2)n(C)c1=O |

system: Pseudomonas aeruginosa; test: Antimicrobial activity against Pseudomonas aeruginosa 1760-00; type: functional

| MIC90 | Compound |
| --- | --- |
| 0.5 µg/mL (≈ 0.748 µM) | C[C@H]1[C@H](NC(=O)/C(=N\OC(C)(C)C(=O)O)c2csc(N)n2)C(=O)N1C(=O)NS(=O)(=O)n1nc(-c2cc(=O)c(O)c[nH]2)n(C)c1=O |

system: Pseudomonas aeruginosa; test: Antimicrobial activity against Pseudomonas aeruginosa PA-4990; type: functional

| MIC90 | Compound |
| --- | --- |
| 0.5 µg/mL (≈ 0.748 µM) | C[C@H]1[C@H](NC(=O)/C(=N\OC(C)(C)C(=O)O)c2csc(N)n2)C(=O)N1C(=O)NS(=O)(=O)n1nc(-c2cc(=O)c(O)c[nH]2)n(C)c1=O |

system: Pseudomonas aeruginosa; test: Antimicrobial activity against Pseudomonas aeruginosa 1527-08; type: functional

| MIC90 | Compound |
| --- | --- |
| 0.5 µg/mL (≈ 0.748 µM) | C[C@H]1[C@H](NC(=O)/C(=N\OC(C)(C)C(=O)O)c2csc(N)n2)C(=O)N1C(=O)NS(=O)(=O)n1nc(-c2cc(=O)c(O)c[nH]2)n(C)c1=O |

system: Pseudomonas aeruginosa; test: Antimicrobial activity against Pseudomonas aeruginosa 1526-08; type: functional

| MIC90 | Compound |
| --- | --- |
| 0.25 µg/mL (≈ 0.374 µM) | C[C@H]1[C@H](NC(=O)/C(=N\OC(C)(C)C(=O)O)c2csc(N)n2)C(=O)N1C(=O)NS(=O)(=O)n1nc(-c2cc(=O)c(O)c[nH]2)n(C)c1=O |

system: Pseudomonas aeruginosa; test: Antimicrobial activity against Pseudomonas aeruginosa 1521-08; type: functional

| MIC90 | Compound |
| --- | --- |
| 1 µg/mL (≈ 1.5 µM) | C[C@H]1[C@H](NC(=O)/C(=N\OC(C)(C)C(=O)O)c2csc(N)n2)C(=O)N1C(=O)NS(=O)(=O)n1nc(-c2cc(=O)c(O)c[nH]2)n(C)c1=O |
